Data on seven compounds can be found in ChEMBL document CHEMBL4418913, “Modulation of K2P channels” (2018).

For experiment [1], the target named is T1, Potassium channel subfamily K member 4 (Homo sapiens) (UniProt Q9NYG8).
T1 sequence (whole entry): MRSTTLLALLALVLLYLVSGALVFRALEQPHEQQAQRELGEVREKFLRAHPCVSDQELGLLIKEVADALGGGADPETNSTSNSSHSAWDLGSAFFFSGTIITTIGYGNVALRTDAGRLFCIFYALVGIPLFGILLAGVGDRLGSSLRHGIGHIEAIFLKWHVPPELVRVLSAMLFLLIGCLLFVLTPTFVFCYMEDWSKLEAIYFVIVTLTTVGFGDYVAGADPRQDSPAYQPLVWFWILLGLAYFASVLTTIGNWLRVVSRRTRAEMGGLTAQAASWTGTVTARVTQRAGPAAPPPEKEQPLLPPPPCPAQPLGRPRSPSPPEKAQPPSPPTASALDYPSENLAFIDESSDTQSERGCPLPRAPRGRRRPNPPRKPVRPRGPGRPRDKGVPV
Briefly: Binding affinity to K2P4.1 (unknown origin) assessed as induction of protein cross linking and labelling at 1 to 200 uM following 254 nm UV light irradiation for 30 secs by SDS-PAGE analysis.

The target of experiment [2] is T2, Potassium channel subfamily K member 2 (Homo sapiens) (UniProt O95069).
T2 sequence (whole entry): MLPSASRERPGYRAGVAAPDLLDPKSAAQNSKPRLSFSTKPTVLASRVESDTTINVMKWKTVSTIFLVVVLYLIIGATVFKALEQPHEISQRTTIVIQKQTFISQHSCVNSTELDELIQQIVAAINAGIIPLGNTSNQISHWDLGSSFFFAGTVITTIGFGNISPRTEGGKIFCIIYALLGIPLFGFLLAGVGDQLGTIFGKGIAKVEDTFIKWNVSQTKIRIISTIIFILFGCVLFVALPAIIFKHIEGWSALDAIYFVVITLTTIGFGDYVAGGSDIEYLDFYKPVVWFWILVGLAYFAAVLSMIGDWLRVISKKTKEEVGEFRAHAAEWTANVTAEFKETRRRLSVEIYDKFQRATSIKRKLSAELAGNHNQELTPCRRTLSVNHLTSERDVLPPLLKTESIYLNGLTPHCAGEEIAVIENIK
Description: Inhibition of K2P2.1 (unknown origin) expressed in Xenopus oocytes assessed as effect on channel currents at 100 to 500 uM at 40 mV holding potential by two-electrode voltage clamp assay. Format: cell-based. For orientation: Two-electrode voltage clamp holds a large cell at a set potential and records current.

The target of experiment [3] is T2, Potassium channel subfamily K member 2 (Homo sapiens). Briefly: Reversible modulatory activity at K2P2.1 (unknown origin) expressed in Xenopus oocytes assessed as effect on channel currents at 100 uM at -80 mV holding potential by two-electrode voltage clamp assay. Format: cell-based.
The target is the same in experiment [4]. Briefly: Activation of K2P2.1 (unknown origin) expressed in Xenopus oocytes assessed as effect on channel currents at 400 uM by two-electrode voltage clamp assay. Format: cell-based.
Experiment [5] shares this target. Briefly: Activation of K2P2.1 (unknown origin) expressed in Xenopus oocytes assessed as effect on channel currents at -80 mV holding potential by two-electrode voltage clamp assay relative to untreated control. The experiment is classed as cell-based.
Experiment [6] deals with Potassium voltage-gated channel subfamily KQT member 2 (Homo sapiens) (UniProt O43526). Description: Activation of Kv7.2 (unknown origin) expressed in Xenopus oocytes assessed as effect on channel currents by two-electrode voltage clamp assay. Format: cell-based.
Experiment [7] concerns the target T2, Potassium channel subfamily K member 2 (Homo sapiens). Description: Reversible activation of K2P2.1 (unknown origin) expressed in HEK293T cells assessed as effect on channel currents at 5 to 20 uM by […] assay. Format: cell-based.
Experiment [8] has the same target. Description: Activation of K2P2.1 (unknown origin) expressed in HEK293T cells inside out excised patches assessed as effect on channel currents at 20 uM at -40 mV holding potential by patch clamp assay relative to untreated control. The experiment is classed as cell-based. In general terms: Patch clamp records ionic current or voltage across a cell membrane.
The target is the same in experiment [9]. Briefly: Activation of K2P2.1 (unknown origin) expressed in HEK293T cells outside out excised patches assessed as effect on channel currents at 20 uM at -40 mV holding potential by […] patch clamp assay relative to untreated control. The experiment is classed as cell-based.
Experiment [10] deals with Potassium channel subfamily K member 2 (Homo sapiens), O95069 [UNDEFINED MUTATION]. Description: Activation of K2P2.1 W275S mutant (unknown origin) expressed in Xenopus oocytes assessed as effect on channel currents at 50 uM by two-electrode voltage clamp assay. The experiment is classed as cell-based.
The test system is the same in experiment [11]. Briefly: Activation of K2P2.1 G137I mutant (unknown origin) expressed in Xenopus oocytes assessed as effect on channel currents at 50 uM by two-electrode voltage clamp assay. Format: cell-based.
The target in experiment [12] is T2, Potassium channel subfamily K member 2 (Homo sapiens). Briefly: Reversible activation of K2P2.1 (unknown origin) expressed in HEK293T cells assessed as effect on channel currents at 10 uM at -80 mV holding potential by whole cell patch clamp assay relative to untreated control. Format: cell-based.
For experiment [13] the target is unchanged. Description: Activation of K2P2.1 (unknown origin) expressed in Xenopus oocytes assessed as effect on channel currents at 50 uM in presence of 90 mM [K+]o-induced extracellular C-type gate stabilization by two-electrode voltage clamp assay. Format: cell-based.
Experiment [14] shares this target. Description: Reversible activation of K2P2.1 (unknown origin) expressed in Xenopus oocytes assessed as effect on channel currents at 50 uM at -80 mV holding potential by two-electrode voltage clamp assay. The experiment is classed as cell-based.
A further experiment is filed under the species Homo sapiens. Description: Activation of K2P2.1 triple Glycine mutant (unknown origin) expressed in Xenopus oocytes assessed as effect on channel currents at 50 uM by two-electrode voltage clamp assay. Format: cell-based.

SMILES strings stand for the structures. Activity calls are given as the source filed them. The rule behind the calls is not given here.

Chain of Potassium voltage-gated channel subfamily KQT member 2 (Homo sapiens) (O43526 whole entry): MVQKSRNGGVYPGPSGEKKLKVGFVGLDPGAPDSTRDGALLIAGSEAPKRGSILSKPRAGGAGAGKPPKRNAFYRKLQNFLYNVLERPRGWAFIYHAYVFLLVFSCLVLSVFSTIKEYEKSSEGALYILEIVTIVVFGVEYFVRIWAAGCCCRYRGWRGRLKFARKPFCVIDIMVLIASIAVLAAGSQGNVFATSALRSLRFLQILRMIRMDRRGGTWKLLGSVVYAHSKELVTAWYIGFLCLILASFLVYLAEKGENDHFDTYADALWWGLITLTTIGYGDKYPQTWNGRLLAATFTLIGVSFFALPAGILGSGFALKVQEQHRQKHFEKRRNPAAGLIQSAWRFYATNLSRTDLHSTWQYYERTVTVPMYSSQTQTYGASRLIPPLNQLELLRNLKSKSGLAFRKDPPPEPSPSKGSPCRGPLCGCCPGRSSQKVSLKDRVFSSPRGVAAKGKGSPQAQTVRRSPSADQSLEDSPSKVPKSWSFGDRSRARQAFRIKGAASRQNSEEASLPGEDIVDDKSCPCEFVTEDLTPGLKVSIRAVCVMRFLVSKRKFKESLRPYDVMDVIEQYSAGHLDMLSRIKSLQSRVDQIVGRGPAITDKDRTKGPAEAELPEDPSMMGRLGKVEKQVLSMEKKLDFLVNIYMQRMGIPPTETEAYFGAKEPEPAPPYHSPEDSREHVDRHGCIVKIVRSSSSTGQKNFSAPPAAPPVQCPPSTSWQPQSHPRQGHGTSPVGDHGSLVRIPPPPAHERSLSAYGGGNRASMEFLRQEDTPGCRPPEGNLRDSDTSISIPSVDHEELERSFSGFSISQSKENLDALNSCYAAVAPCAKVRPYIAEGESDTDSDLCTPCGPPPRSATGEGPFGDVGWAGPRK

For the compound `C#Cc1ccc(S(=O)(=O)NC(=O)CCN2c3ccc(N=[N+]=[N-])cc3C3(CCCCC3)c3cc(N=[N+]=[N-])ccc32)cc1`, in [1], the result was Active.

As to `Cc1sc(-n2cccc2)c(C(=O)NCc2ccc(Cl)cc2)c1C`, the inhibition entry in [2] was “Active”.

Take `O=C(O)CCn1c2ccc(Cl)cc2c2cc(Cl)ccc21`: the outcome in experiment [3] and in experiment [4] was Active. In addition, in experiment [5], the Emax stood at 11. Moreover, the result in experiment [6] was inactive.

As to `O=C(O)COc1ccc(C23CC4CC(CC(C4)C2)C3)cc1`, in experiment [4], the outcome was Active.

Take `O=C1S/C(=C/c2ccc(F)cc2)C(=O)N1CN1CCCCC1`: the outcome in experiment [4] was Active.

Consider `CC1(C)c2cc(Cl)ccc2N(CCc2nnn[nH]2)c2ccc(Cl)cc21`, for which the result in [7], in experiment [8], in experiment [9], in [12] and in experiment [14] was Active. Further, the outcome (in [10]; in experiment [11]; in experiment [13]; in the experiment filed under Homo sapiens) was inactive.

Turning to `Cc1cccc(-n2ncc3c(NCCc4ccccc4)ncnc32)c1`, in experiment [3], the result was Active.
